This assay has as its target T1, C1s (Cricetulus griseus, UniProt G3GUR0).
T1 construct: endogenous in cells; host or cells: CHO cells; FreeStyle CHO-S (Thermo Fisher) named in Materials and Methods; 10x concentrated culture supernatant
In words: Proteolysis of purified MN gp120 by 10× concentrated CHO supernatant, western blot. The assay is classed as biochemical, Chinese Hamster. Conditions: purified MN gp120 (clade B) combined with 10× concentrated CHO supernatant; reduced with DTT; goat polyclonal anti-gp120 western blot. Here is the method:
FIGS. 8A and 8B. […] FIG. 8A. Purified MN gp120, a clade B protein, was combined with 10× concentrated CHO supernatant. Samples were reduced with DTT and probed on western blot using a goat polyclonal antibody against gp120. FIG. 8B provides details of samples loaded in lanes 1-5 in FIG. 8A. The serine protease inhibitor, 4-AMB was used.
Enrichment of protease from CHO cell culture supernatant was carried out using a series of chromatography columns to enrich for protein containing proteolytic activity. Individual chromatography fractions (CHO cell culture supernatant was fractionated based on size using size exclusion chromatography, followed by further purification on strong anion-exchange column) were assayed for the presence of protease activity against purified gp120.
(A western blot detects proteins with antibodies after separation by electrophoresis.)

T1 sequence (G3GUR0 entry or part of it): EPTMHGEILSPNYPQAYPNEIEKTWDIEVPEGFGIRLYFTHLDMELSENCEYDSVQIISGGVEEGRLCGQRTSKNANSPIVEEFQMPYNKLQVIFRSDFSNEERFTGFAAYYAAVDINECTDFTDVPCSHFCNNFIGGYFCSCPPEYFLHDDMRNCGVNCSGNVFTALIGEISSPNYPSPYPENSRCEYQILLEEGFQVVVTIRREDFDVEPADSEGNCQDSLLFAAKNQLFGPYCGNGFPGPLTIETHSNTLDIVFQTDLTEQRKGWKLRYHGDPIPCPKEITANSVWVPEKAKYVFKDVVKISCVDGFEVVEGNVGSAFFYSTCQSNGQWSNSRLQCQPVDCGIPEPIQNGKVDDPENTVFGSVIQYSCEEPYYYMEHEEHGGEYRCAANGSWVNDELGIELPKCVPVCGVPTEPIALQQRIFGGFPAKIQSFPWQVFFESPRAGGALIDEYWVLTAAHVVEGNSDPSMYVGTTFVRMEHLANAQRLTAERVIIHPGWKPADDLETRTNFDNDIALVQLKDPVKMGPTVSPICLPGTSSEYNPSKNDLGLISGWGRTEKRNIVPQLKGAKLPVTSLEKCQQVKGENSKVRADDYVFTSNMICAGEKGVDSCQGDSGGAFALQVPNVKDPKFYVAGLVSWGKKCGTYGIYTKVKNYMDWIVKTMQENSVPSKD

With `O=C(O)CN(CCOCCOCCN(CC(=O)O)CC(=O)O)CC(=O)O` [EGTA], the “proteolysis of gp120 in CHO cell supernatant” value was “Inhibition of proteolysis”.

The values are drawn from patent US12559526B2, “Complement component 1s (C1s) deficient cells for production of vaccines and biopharmaceutical proteins” (The Regents of the University of California, priority 2018, dated 2026).
